Measurements: patent publication US10550116B2, “Fused bicyclic heterocycle derivatives as pesticides” (BAYER CROPSCIENCE AKTIENGESELLSCHAFT, priority 2015, dated 2020)

Assays:
[1] = log P by HPLC on reversed-phase column (EEC Directive 79/831 Annex V.A8); format: physicochemical; details: reversed-phase C18 HPLC column; pH 7.8, aqueous ammonium hydrogencarbonate/acetonitrile; 55° C.; read-out: log P (neutral)
Procedure: The log P values are measured according to EEC Directive 79/831 Annex V.A8 by HPLC (high-performance liquid chromatography) on a reversed-phase column (C 18). Temperature: 55° C. The LC-MS determination in the acidic range is effected at pH 2.7 using 0.1% aqueous formic acid and acetonitrile (contains 0.1% formic acid) as eluents; linear gradient from 10% acetonitrile to 95% acetonitrile. Called log P (HCOOH) in the table. LC-MS determination in the neutral range is effected at pH 7.8 with 0.001 molar aqueous ammonium hydrogencarbonate solution and acetonitrile as eluents; linear gradient from 10% acetonitrile to 95% acetonitrile. Called log P (neutral) in the table. Calibration is carried out using unbranched alkan-2-ones (having 3 to 16 carbon atoms) with known log P values (log P values determined on the basis of the retention times by linear interpolation between two successive alkanones).

Tetranychus urticae = Tetranychus urticae spray test, OP-resistant; format: in vivo; details: foliar, 144 h, bean leaf discs, after 6 days, read-out: efficacy
Procedure: To produce a suitable active ingredient preparation, 1 part by weight of active ingredient is dissolved with the stated parts by weight of solvent and made up with water containing an emulsifier concentration of 1000 ppm until the desired concentration is attained. To produce further test concentrations, the preparation is diluted with emulsifier-containing water. Discs of bean leaves (Phaseolus vulgaris) infested with all stages of the greenhouse red spider mite (Tetranychus urticae) are sprayed with an active ingredient preparation of the desired concentration. After 6 days, the efficacy in % is determined. 100% means that all the spider mites have been killed; 0% means that no spider mites have been killed.

Spodoptera frugiperda = Spodoptera frugiperda spray test; format: in vivo; details: foliar, 168 h, caterpillars on maize leaf discs, after 7 days, read-out: efficacy
Procedure: To produce a suitable active ingredient preparation, 1 part by weight of active ingredient is dissolved with the stated parts by weight of solvent and made up with water containing an emulsifier concentration of 1000 ppm until the desired concentration is attained. To produce further test concentrations, the preparation is diluted with emulsifier-containing water. Leaf discs of maize (Zea mays) are sprayed with an active ingredient preparation of the desired concentration and, after drying, populated with caterpillars of the armyworm (Spodoptera frugiperda). After 7 days, the efficacy in % is determined. 100% means that all the caterpillars have been killed; 0% means that no caterpillar has been killed.

Myzus persicae = Myzus persicae spray test; format: in vivo; details: foliar, Chinese cabbage leaf discs, after 5-6 days, read-out: efficacy
Procedure: (§1) To produce a suitable active ingredient preparation, 1 part by weight of active ingredient is dissolved with the stated parts by weight of solvent and made up with water containing an emulsifier concentration of 1000 ppm until the desired concentration is attained. To produce further test concentrations, the preparation is diluted with emulsifier-containing water. Discs of Chinese cabbage leaves (Brassica pekinensis) infested by all stages of the green peach aphid (Myzus persicae) are sprayed with an active ingredient preparation of the desired concentration. After 5-6 days, the efficacy in % is determined. 100% means that all the aphids have been killed; 0% means that no aphids have been killed.

Phaedon cochleariae = Phaedon cochleariae spray test; format: in vivo; details: foliar, 168 h, larvae on Chinese cabbage leaf discs, after 7 days, read-out: efficacy
Procedure: as §1, with “pekinensis)” for “pekinensis) infested by all stages of the green peach aphid (Myzus persicae)”, “concentration and, after drying, populated with larvae of the mustard beetle (Phaedon cochleariae).” for “concentration.”, “7” for “5-6”, “beetle larvae” for “aphids”

Meloidogyne incognita = Meloidogyne incognita test; format: in vivo; details: 20 ppm; lettuce; after 14 days
Procedure: To produce a suitable preparation of active ingredient, 1 part by weight of active ingredient is mixed with the stated amount of solvent and the concentrate is diluted with water to the desired concentration. Vessels are filled with sand, active ingredient solution, an egg/larvae suspension of the southern root-knot nematode (Meloidogyne incognita) and lettuce seeds. The lettuce seeds germinate and the plants develop. The galls develop on the roots. After 14 days, the nematicidal efficacy in % is determined by the formation of galls. 100% means that no galls were found; 0% means that the number of galls on the treated plants corresponds to the untreated control.

`CCSc1nc2ccccc2nc1-c1nc2cc(C(F)(F)F)ncc2n1C` [Example I-4, 2-Ethylsulphanyl-3-[3-methyl-6-(trifluoromethyl)imidazo[4,5-c]pyridin-2-yl]quinoxaline] showed a chromatographic logP [1] of 4.1 and a pest or weed control at 100 g/ha (Tetranychus urticae) of 70%.
With `CCS(=O)(=O)c1cc2ccc(Cl)cc2nc1-c1nc2cc(C(F)(F)F)ncc2n1C` [Example I-8, 7-Chloro-3-ethylsulphonyl-2-[3-methyl-6-(trifluoromethyl)imidazo[4,5-c]pyridin-2-yl]quinoline] the pest or weed control at 500 g/ha (Spodoptera frugiperda) was 100%, the chromatographic logP [1] was 2.63 and the pest or weed control at 500 g/ha (Myzus persicae) was 90%. For the same molecule, the pest or weed control at 500 g/ha (Phaedon cochleariae) was 100%.
In the case of `CCS(=O)(=O)c1cc2ccccc2nc1-c1cn2cnc(C(F)(F)F)cc2n1` [Example I-11, 3-(Ethylsulphonyl)-2-[7-(trifluoromethyl)imidazo[1,2-c]pyrimidin-2-yl]quinoline], the pest or weed control at 500 g/ha (Spodoptera frugiperda) is reported as 100%, the chromatographic logP [1] is reported as 2.63 and the pest or weed control at 500 g/ha (Myzus persicae) is reported as 70%. For the same molecule, the pest or weed control at 500 g/ha (Phaedon cochleariae) was 100%.
With `CCS(=O)(=O)c1cc2ccccc2nc1-c1nc2cc(C(F)(F)F)cnc2o1` [Example I-13] the pest or weed control at 500 g/ha (Spodoptera frugiperda) was 83%, the chromatographic logP [1] was 3.27 and the pest or weed control at 500 g/ha (Myzus persicae) was 100%. It also gave a pest or weed control at 100 g/ha (Phaedon cochleariae) of 100%.
`CCS(=O)(=O)c1cc2ccccc2nc1-c1nc2cc(SC(F)(F)F)ccc2o1` [Example I-14, 2-(3-Ethylsulphonyl-2-quinolyl)-5-(trifluoromethylsulphanyl)-1,3-benzoxazole] gave a pest or weed control at 500 g/ha (Spodoptera frugiperda) of 100%, a chromatographic logP [1] of 4.17 and a pest or weed control at 500 g/ha (Myzus persicae) of 90%. It also gave a pest or weed control at 500 g/ha (Phaedon cochleariae) of 100%.
With `CCS(=O)(=O)c1cc2ccccc2nc1-c1nc2cc3c(cc2n1C)OC(F)(F)O3` [Example I-16, 6-(3-Ethylsulphonyl-2-quinolyl)-2,2-difluoro-7-methyl-[1,3]dioxolo[4,5-f]benzimidazole] the pest or weed control at 500 g/ha (Spodoptera frugiperda) was 100%, the chromatographic logP [1] was 3.39 and the pest or weed control at 500 g/ha (Myzus persicae) was 90%. It also gave a pest or weed control at 500 g/ha (Phaedon cochleariae) of 100%.
`CCS(=O)(=O)c1cc2ccccc2nc1-c1nc2cc(S(=O)(=O)C(F)(F)F)ccc2o1` [Example I-18, 2-(3-Ethylsulphonyl-2-quinolyl)-5-(trifluoromethylsulphonyl)-1,3-benzoxazole] showed a pest or weed control at 100 g/ha (Spodoptera frugiperda) of 100%, a chromatographic logP [1] of 3.62 and a pest or weed control at 100 g/ha (Myzus persicae) of 100%. The pest or weed control at 100 g/ha (Phaedon cochleariae) was 100% and the pest or weed control at 100 g/ha (Tetranychus urticae) was 70%.
`CCS(=O)(=O)c1cc2ccccc2nc1-c1nc2cc([S+]([O-])C(F)(F)F)ccc2o1` (centres unmarked) [Example I-19, 2-(3-Ethylsulphonyl-2-quinolyl)-5-(trifluoromethylsulphinyl)-1,3-benzoxazole] gave a pest or weed control at 100 g/ha (Spodoptera frugiperda) of 100%, a chromatographic logP [1] of 3.05 and a pest or weed control at 100 g/ha (Myzus persicae) of 90%. For the same molecule, the pest or weed control at 100 g/ha (Phaedon cochleariae) was 100%.
`CCS(=O)(=O)c1cc2ccccc2nc1-c1nc2cc(SC(F)(F)F)ccc2n1C` [Example I-21, 3-Ethylsulphonyl-2-[1-methyl-5-(trifluoromethylsulphanyl)benzimidazol-2-yl]quinoline] gave a pest or weed control at 100 g/ha (Spodoptera frugiperda) of 100%, a chromatographic logP [1] of 3.96 and a pest or weed control at 100 g/ha (Myzus persicae) of 100%. The pest or weed control at 100 g/ha (Phaedon cochleariae) was 100% and the pest or weed control at 20 g/ha (Tetranychus urticae) was 70%.
Molecule `CCS(=O)(=O)c1cc2ccccc2nc1-c1nc2cc(C(F)(F)F)nnc2n1C` [Example I-22] has a pest or weed control at 100 g/ha (Spodoptera frugiperda) of 100%, a pest or weed control at 100 g/ha (Myzus persicae) of 100% and a pest or weed control at 100 g/ha (Tetranychus urticae) of 90%.
`CCS(=O)(=O)c1cc2ccccc2nc1-c1nc2cc([S+]([O-])C(F)(F)F)ccc2n1C` (centres unmarked) [Example I-23, 3-Ethylsulphonyl-2-[1-methyl-5-(trifluoromethylsulphinyl)benzimidazol-2-yl]quinoline] showed a pest or weed control at 100 g/ha (Spodoptera frugiperda) of 100%, a chromatographic logP [1] of 2.79 and a pest or weed control at 100 g/ha (Myzus persicae) of 100%. It also gave a pest or weed control at 100 g/ha (Phaedon cochleariae) of 100% and a pest or weed control at 20 g/ha (Tetranychus urticae) of 100%.
`CCSc1cc2ccccc2nc1-c1nc2cc(SC(F)(F)F)ccc2o1` [Example I-29, 2-(3-Ethylsulphanyl-2-quinolyl)-5-(trifluoromethylsulphanyl)-1,3-benzoxazole] showed a chromatographic logP [1] of 5.43 and a pest or weed control at 100 g/ha (Tetranychus urticae) of 70%.
With `CCSc1cc2ccccc2nc1-c1nc2cc(C(F)(F)F)ccc2o1` [Example I-32] the “nematicidal efficacy (formation of galls)” value (Meloidogyne incognita) was 100%.
`CCSc1cc2ccccc2nc1-c1nc2cc(SC(F)(F)F)ccc2n1C` [Example I-34, 3-Ethylsulphanyl-2-[1-methyl-5-(trifluoromethylsulphanyl)benzimidazol-2-yl]quinoline] gave a chromatographic logP [1] of 4.63 and a pest or weed control at 100 g/ha (Tetranychus urticae) of 100%.
In the case of `CC[S+]([O-])c1cc2ccccc2nc1-c1nc2cc3c(cc2[nH]1)OC(F)(F)O3` (centres unmarked) [Example I-36], the pest or weed control at 100 g/ha (Tetranychus urticae) is reported as 90%.
`CCSc1cc2ccccc2nc1-c1nc2cc(C(F)(F)C(F)(F)F)cnc2n1C` [Example I-37] showed a pest or weed control at 100 g/ha (Tetranychus urticae) of 90%.
With `CCSc1cnc2nc(-c3nc4cc(C(F)(F)F)ncc4n3C)c(SCC)cc2c1` [Example I-40, 3,6-Bis(ethylsulphanyl)-2-[3-methyl-6-(trifluoromethyl)-3H-imidazo[4,5-c]pyridin-2-yl]-1,8-naphthyridine] the chromatographic logP [1] was 3.23, the “nematicidal efficacy (formation of galls)” value (Meloidogyne incognita) was 90% and the pest or weed control at 20 g/ha (Tetranychus urticae) was 70%.
In the case of `CCSc1c(-c2nc3cc(C(F)(F)F)ncc3n2C)ncc2ccccc12` [I′-42], the pest or weed control at 500 g/ha (Myzus persicae) is reported as 90% and the pest or weed control at 500 g/ha (Tetranychus urticae; 500 g/ha) is reported as 70%.
